Test results from ChEMBL document CHEMBL3091307, “Structure-anti-MRSA activity relationship of macrocyclic bis(bibenzyl) derivatives” (2013).
≈ marks a conversion by molar mass, not a printed value. Calls of active or inactive are those of the source. The rule behind the calls is not given here.

Experiments:
Staphylococcus aureus [1] = assay: Antibacterial activity against methicillin-resistant Staphylococcus aureus clinical isolate OM584 by liquid microdilution method; assay type: functional
Staphylococcus aureus [2] = assay: Antibacterial activity against methicillin-resistant Staphylococcus aureus clinical isolate OM481 by liquid microdilution method; assay type: functional
Staphylococcus aureus [3] = assay: Antibacterial activity against methicillin-resistant Staphylococcus aureus clinical isolate N315 by liquid microdilution method; assay type: functional
Staphylococcus aureus [4] = assay: Bacteriostatic activity against methicillin-resistant Staphylococcus aureus at 4 times MIC by cell survival assay; assay type: functional, organism-based
Staphylococcus aureus [5] = assay: Bactericidal activity against methicillin-resistant Staphylococcus aureus at 4 times MIC by cell survival assay; assay type: functional, organism-based
Staphylococcus aureus [6] = assay: Antibacterial activity against methicillin-resistant Staphylococcus aureus at 4 times MIC by cell survival assay; assay type: functional, organism-based
Staphylococcus aureus [7] = assay: Antibacterial activity against 2-phenoxyphenol and trichlosan-resistant Staphylococcus aureus clinical isolate N315 by liquid microdilution method; assay type: functional

| Structure (SMILES) | MIC (Staphylococcus aureus [1]) [µg/mL] | MIC (Staphylococcus aureus [2]) [µg/mL] | MIC (Staphylococcus aureus [3]) [µg/mL] | Activity (Staphylococcus aureus [4]) | Activity (Staphylococcus aureus [5]) | Activity (Staphylococcus aureus [6]) | MIC (Staphylococcus aureus [7]) [µg/mL] |
| --- | --- | --- | --- | --- | --- | --- | --- |
| CC(=O)NC[C@H]1CN(c2ccc(N3CCOCC3)c(F)c2)C(=O)O1 [LINEZOLID] | 1 (≈ 2.96 µM) | 1 (≈ 2.96 µM) | – | – | – | – | – |
| Oc1ccc2cc1Oc1ccc(cc1)CCc1ccc(O)c(c1)Oc1ccc(cc1)CC2 | > 100 | > 100 | > 100 | – | – | – | – |
| Oc1ccccc1Oc1ccccc1 | 8 (≈ 43 µM) | 8 (≈ 43 µM) | 8 (≈ 43 µM) | Active | inactive | – | – |
| Oc1ccc2c(c1)CCc1ccc(c(F)c1)Oc1cc(ccc1O)CCc1ccc-2c(O)c1 | 8 (≈ 18.1 µM) | 8 (≈ 18.1 µM) | 4 (≈ 9.04 µM) | – | – | – | – |
| Oc1ccc2c(c1)CCc1ccc(cc1)Oc1cc(ccc1O)CCc1ccc-2c(O)c1 [RICCARDI C] | 2 (≈ 4.71 µM) | 2 (≈ 4.71 µM) | 2 (≈ 4.71 µM) | – | – | Active | 2 (≈ 4.71 µM) |
| Oc1ccc2c(c1)CCc1ccc(cc1)Oc1cccc(c1)CCc1ccc-2c(O)c1 | 1 (≈ 2.45 µM) | 1 (≈ 2.45 µM) | 1 (≈ 2.45 µM) | – | – | – | 1 (≈ 2.45 µM) |
| Oc1ccc2c(c1)CCc1ccc(cc1)Oc1cc(ccc1F)CCc1ccc-2c(O)c1 | 2 (≈ 4.69 µM) | 1 (≈ 2.34 µM) | 1 (≈ 2.34 µM) | – | – | – | – |
| Oc1ccc2c(c1)CCc1ccc(c(O)c1)Oc1cc(ccc1O)CCc1ccc-2c(O)c1 | 16 (≈ 36.3 µM) | 16 (≈ 36.3 µM) | 8 (≈ 18.2 µM) | – | – | – | – |
| Oc1ccc2cc1Oc1ccc(cc1)CCc1ccccc1-c1ccc(cc1O)CC2 | 1 (≈ 2.45 µM) | 1 (≈ 2.45 µM) | 1 (≈ 2.45 µM) | – | – | – | 1 (≈ 2.45 µM) |
| Oc1ccc2c(c1)CCc1ccc(c(O)c1)-c1ccc(O)c(c1)CCc1ccc-2c(O)c1 | 32 (≈ 75.4 µM) | 32 (≈ 75.4 µM) | 32 (≈ 75.4 µM) | – | – | – | – |
| Oc1ccc2c(c1)CCc1ccc(cc1O)Oc1cc(ccc1O)CCc1ccc-2c(O)c1 | 8 (≈ 18.2 µM) | 8 (≈ 18.2 µM) | 8 (≈ 18.2 µM) | – | – | – | – |
| Oc1ccc2c(c1)CCc1ccc(cc1O)Oc1cccc(c1)CCc1ccc-2c(O)c1 | 4 (≈ 9.42 µM) | 4 (≈ 9.42 µM) | 4 (≈ 9.42 µM) | – | – | – | – |
| Oc1ccc2c(c1)CCc1ccc(O)c(c1)Oc1ccc(cc1)CCc1ccc-2c(O)c1 | 4 (≈ 9.42 µM) | 4 (≈ 9.42 µM) | 4 (≈ 9.42 µM) | – | – | – | – |
